Results published in PubChem BioAssay AID248 (DTP/NCI, 2004).
Where “and” joins values, the source holds several entries; their conditions need not be identical. Equal entries are not always repeated. Toxic doses and inconclusive results are not listed. Numbered stars: 1 amine (or outer) side, 2 acyl side, 3 side chain; on linkers, the order of the positions; unused ones are H or OH. Bridge positions count the residues as written; N and C are the ends. Square brackets hold non-standard residues; d marks the D form. Peptide text beside a SMILES is read from it. I, II: the chains in the order shown. Actinocin(1to9) = Cc1c2oc3c(C)ccc(C(=O)[*:2])c3nc-2c(C(=O)[*:1])c(N)c1=O; X2 = CC(=O)OC1CC(C)N([*:1])C1C(=O)[*:2]; X1 = CC1CC(=O)C(C(=O)[*:2])N1[*:1]; NMeV = CN[CH](C(=O)O)C(C)C; NMeA = CN[CH](C)C(=O)O; Sar = CNCC(=O)O

Test system: L1210 leukemia ip in BDF1 mice, survival T/C
Assay: NCI In Vivo Anticancer Drug Screen. Data for tumor model L1210 Leukemia (intraperitoneal) in B6D2F1 (BDF1) mice
Conditions: endpoint: mean survival time, higher = longer survival
Procedure, shortened: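 Ratio derived from survival: compound-dosed mice over vehicle-dosed mice, all bearing a transplantable tumor.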

[1] = dose: 100.0 mg/kg/injection, schedule: Q01DX001 (ip), vehicle: saline
[2] = dose: 100.0 mg/kg/injection, schedule: Q04DX003 (ip), vehicle: Klucel (hydroxypropylcellulose) (HPC)
[3] = dose: 200.0 mg/kg/injection, schedule: Q04DX003 (ip), vehicle: Klucel (hydroxypropylcellulose) (HPC)
[4] = dose: 400.0 mg/kg/injection, schedule: Q04DX003 (ip), vehicle: Klucel (hydroxypropylcellulose) (HPC)
[5] = dose: 400.0 mg/kg/injection, schedule: Q01DX009 (ip), vehicle: Klucel (hydroxypropylcellulose) (HPC)
[6] = dose: 50.0 mg/kg/injection, schedule: Q01DX001 (ip), vehicle: saline
[7] = dose: 200.0 mg/kg/injection, schedule: Q01DX001 (ip), vehicle: saline
[8] = dose: 400.0 mg/kg/injection, schedule: Q01DX001 (ip), vehicle: saline
[9] = dose: 100.0 mg/kg/injection, schedule: Q04DX003 (ip), vehicle: saline with Tween-80
[10] = dose: 200.0 mg/kg/injection, schedule: Q04DX003 (ip), vehicle: saline with Tween-80
[11] = dose: 400.0 mg/kg/injection, schedule: Q04DX003 (ip), vehicle: saline with Tween-80

In the case of `CCOP(=O)(OCC)Oc1ccc(Sc2ccc(OP(=O)(OCC)OCC)cc2)cc1`, the T/C [1] is reported as 108 % of control.
In the case of `C=CCN(CC=C)C(=S)[S-].C=CCN(CC=C)C(=S)[S-].[Zn]`, the T/C (dose: 1.25 mg/kg/injection, schedule: Q01DX009 (ip), vehicle: saline) is reported as 101 % of control, the T/C (dose: 2.5 mg/kg/injection, schedule: Q01DX009 (ip), vehicle: saline) is reported as 93 % of control and the T/C (dose: 5.0 mg/kg/injection, schedule: Q01DX009 (ip), vehicle: saline) is reported as 87 % of control. For the same molecule, the T/C (dose: 5.0 mg/kg/injection, schedule: Q04DX003 (ip), vehicle: saline) was 90 % of control, the T/C (dose: 10.0 mg/kg/injection, schedule: Q01DX001 (ip), vehicle: saline) was 86 % of control and the T/C (dose: 10.0 mg/kg/injection, schedule: Q04DX003 (ip), vehicle: saline) was 92 % of control. The T/C (dose: 20.0 mg/kg/injection, schedule: Q01DX001 (ip), vehicle: saline) was 95 % of control.
`Cc1ccccc1NC(=O)NCC(=O)O` was tested, and the T/C [2] was 104 % of control, the T/C [3] was 98 % of control and the T/C [4] was 93 % of control.
For `CC(=O)OC1CC(C)N2C(=O)C(C(C)C)NC(=O)C(NC(=O)c3ccc(C)c4oc5c(C)c(=O)c(N)c(C(=O)NC6C(=O)NC(C(C)C)C(=O)N7C(C)CC(=O)C7C(=O)N(C)CC(=O)N(C)C(C)C(=O)OC6C)c-5nc34)C(C)OC(=O)C(C(C)C)N(C)C(=O)CN(C)C(=O)C12` (configuration not stated) (I: TV[X1][Sar][NMeA] / II: TV[X2][Sar][NMeV]; ester I:1-I:C, II:1-II:C; linker I:N-II:N via Actinocin(1to9); configuration not given here), the T/C (dose: 0.1 mg/kg/injection, schedule: Q01DX009 (ip), vehicle: saline + alcohol) was 101 % of control, the T/C (dose: 0.2 mg/kg/injection, schedule: Q01DX009 (ip), vehicle: saline + alcohol) was 105 % of control and the T/C (dose: 0.3 mg/kg/injection, schedule: Q04DX003 (ip), vehicle: saline + alcohol) was 97 % of control. For the same molecule, the T/C (dose: 0.4 mg/kg/injection, schedule: Q01DX009 (ip), vehicle: saline + alcohol) was 110 % of control, the T/C (dose: 0.6 mg/kg/injection, schedule: Q04DX003 (ip), vehicle: saline + alcohol) was 108 % of control and the T/C (dose: 0.8 mg/kg/injection, schedule: Q01DX001 (ip), vehicle: saline + alcohol) was 97 % of control. The T/C (dose: 0.8 mg/kg/injection, schedule: Q01DX009 (ip), vehicle: saline + alcohol) was 116 % of control, the T/C (dose: 1.2 mg/kg/injection, schedule: Q04DX003 (ip), vehicle: saline + alcohol) was 110 % of control and the T/C (dose: 1.6 mg/kg/injection, schedule: Q01DX001 (ip), vehicle: saline + alcohol) was 102 % of control. For the same molecule, the T/C (dose: 1.6 mg/kg/injection, schedule: Q01DX009 (ip), vehicle: saline + alcohol) was 122 % of control, the T/C (dose: 2.4 mg/kg/injection, schedule: Q04DX003 (ip), vehicle: saline + alcohol) was 112 % of control and the T/C (dose: 3.2 mg/kg/injection, schedule: Q01DX001 (ip), vehicle: saline + alcohol) was 106 % of control. The T/C (dose: 4.8 mg/kg/injection, schedule: Q04DX003 (ip), vehicle: saline + alcohol) was 121 % of control and the T/C (dose: 6.4 mg/kg/injection, schedule: Q01DX001 (ip), vehicle: saline + alcohol) was 122 % of control.
With `S=C1Nc2ccccc2CS1` the T/C (dose: 100.0 mg/kg/injection, schedule: Q01DX009 (ip), vehicle: Klucel (hydroxypropylcellulose) (HPC)) was 100 % of control, the T/C (dose: 200.0 mg/kg/injection, schedule: Q01DX009 (ip), vehicle: Klucel (hydroxypropylcellulose) (HPC)) was 98 % of control and the T/C [5] was 102 % of control.
`CC(CN1CC(=O)NC(=O)C1)N1CC(=O)NC(=O)C1.[Cl][Pt][Cl]` (configuration not stated) was tested, and the T/C (dose: 12.5 mg/kg/injection, schedule: Q04DX003 (ip), vehicle: water) was 106 % of control, the T/C (dose: 25.0 mg/kg/injection, schedule: Q04DX003 (ip), vehicle: water) was 97 % of control and the T/C (dose: 50.0 mg/kg/injection, schedule: Q04DX003 (ip), vehicle: water) was 109 % of control. The T/C (dose: 100.0 mg/kg/injection, schedule: Q01DX009 (ip), vehicle: water) was 108 % of control, the T/C (dose: 100.0 mg/kg/injection, schedule: Q04DX003 (ip), vehicle: water) was 106 % of control and 107 % of control and the T/C (dose: 200.0 mg/kg/injection, schedule: Q01DX009 (ip), vehicle: water) was 121 % of control. For the same molecule, the T/C (dose: 200.0 mg/kg/injection, schedule: Q04DX003 (ip), vehicle: water) was 101 % of control, the T/C (dose: 400.0 mg/kg/injection, schedule: Q01DX009 (ip), vehicle: water) was 160 % of control and the T/C (dose: 400.0 mg/kg/injection, schedule: Q04DX003 (ip), vehicle: water) was 118 % of control.
In the case of `O=C(c1ccccc1)C1NC1c1ccccc1` (configuration not stated), the T/C (dose: 100.0 mg/kg/injection, schedule: Q01DX001 (ip), vehicle: Klucel (hydroxypropylcellulose) (HPC)) is reported as 97 % of control, the T/C (dose: 200.0 mg/kg/injection, schedule: Q01DX001 (ip), vehicle: Klucel (hydroxypropylcellulose) (HPC)) is reported as 92 % of control and the T/C (dose: 400.0 mg/kg/injection, schedule: Q01DX001 (ip), vehicle: Klucel (hydroxypropylcellulose) (HPC)) is reported as 95 % of control.
For `Cc1cccc(-c2nnc(C(Cl)(Cl)Cl)o2)c1`, the T/C [2] was 106 % of control, the T/C [3] was 97 % of control and the T/C [4] was 97 % of control.
With `CC1CCCCN1Cc1ccccc1CC(=O)c1ccccc1` (configuration not stated) the T/C (dose: 100.0 mg/kg/injection, schedule: Q04DX002 (ip), vehicle: Klucel (hydroxypropylcellulose) (HPC)) was 93 % of control and the T/C (dose: 200.0 mg/kg/injection, schedule: Q04DX002 (ip), vehicle: Klucel (hydroxypropylcellulose) (HPC)) was 107 % of control.
For `CCN=C=NCCCN(C)C`, the T/C (dose: 20.0 mg/kg/injection, schedule: Q01DX009 (ip), vehicle: saline) was 107 % of control, the T/C (dose: 20.0 mg/kg/injection, schedule: Q04DX003 (ip), vehicle: saline) was 100 % of control and the T/C (dose: 40.0 mg/kg/injection, schedule: Q01DX009 (ip), vehicle: saline) was 114 % of control. The T/C (dose: 40.0 mg/kg/injection, schedule: Q04DX003 (ip), vehicle: saline) was 109 % of control and the T/C (dose: 80.0 mg/kg/injection, schedule: Q04DX003 (ip), vehicle: saline) was 112 % of control.
In the case of `CCC1=CC(=O)CCC1`, the T/C [6] is reported as 96 % of control, the T/C [1] is reported as 100 % of control and the T/C [7] is reported as 102 % of control. The T/C [8] was 108 % of control.
For `CC(=O)c1ccccc1C`, the T/C [1] was 104 % of control and the T/C [7] was 112 % of control.
For `CN(C)CCOC(=O)N1c2ccccc2C(C)(C)c2ccccc21`, the T/C (dose: 5.8 mg/kg/injection, schedule: Q01DX001 (ip), vehicle: water) was 93 % of control, the T/C (dose: 11.5 mg/kg/injection, schedule: Q01DX001 (ip), vehicle: water) was 98 % of control and the T/C (dose: 23.0 mg/kg/injection, schedule: Q01DX001 (ip), vehicle: water) was 91 % of control. The T/C (dose: 44.4 mg/kg/injection, schedule: Q01DX001 (ip), vehicle: water) was 95 % of control, the T/C (dose: 50.0 mg/kg/injection, schedule: Q01DX001 (ip), vehicle: water) was 100 % of control and the T/C (dose: 66.7 mg/kg/injection, schedule: Q01DX001 (ip), vehicle: water) was 97 % of control. For the same molecule, the T/C (dose: 150.0 mg/kg/injection, schedule: Q01DX001 (ip), vehicle: water) was 95 % of control.
With `CCOC(=O)c1c(C)nc(C)c(C(=O)OCC)c1-c1ccc(N(C)C)cc1` the T/C (dose: 25.6 mg/kg/injection, schedule: Q04DX002 (ip), vehicle: saline with Tween-80) was 101 % of control and the T/C (dose: 64.0 mg/kg/injection, schedule: Q04DX002 (ip), vehicle: saline with Tween-80) was 97 % of control.
`CCN(CC)C(=O)Nc1cccc(OC(=O)NC(C)(C)C)c1` was tested, and the T/C [9] was 99 % of control, the T/C [10] was 103 % of control and the T/C [11] was 93 % of control.
With `CC1(c2cccc(N)c2)OCCO1` the T/C (dose: 100.0 mg/kg/injection, schedule: Q01DX009 (ip), vehicle: saline with Tween-80) was 100 % of control, the T/C [9] was 94 % of control and the T/C (dose: 200.0 mg/kg/injection, schedule: Q01DX009 (ip), vehicle: saline with Tween-80) was 102 % of control. The T/C [10] was 100 % of control, the T/C (dose: 400.0 mg/kg/injection, schedule: Q01DX009 (ip), vehicle: saline with Tween-80) was 91 % of control and the T/C [11] was 97 % of control.
For `O=c1cc(/C=N\Nc2ccccc2)[nH]c(=O)[nH]1`, the T/C [6] was 93 % of control, the T/C [1] was 96 % of control and the T/C [7] was 93 % of control. The T/C [8] was 96 % of control.
With `CC12CCC(=O)C=C1CCC1C2CCC2(C)C(C(=O)COC(=O)Cc3ccc(N(CCCl)CCCl)cc3)CCC12` (configuration not stated) the T/C (dose: 100.0 mg/kg/injection, schedule: Q01DX001 (sc), vehicle: steriod suspending solution) was 99 % of control, the T/C (dose: 200.0 mg/kg/injection, schedule: Q01DX001 (sc), vehicle: steriod suspending solution) was 101 % of control and the T/C (dose: 400.0 mg/kg/injection, schedule: Q01DX001 (sc), vehicle: steriod suspending solution) was 100 % of control. The T/C [5] was 90 % of control.
